According to ChEMBL document CHEMBL3822423 (J Med Chem, 2016):
Converted amounts (≈) assume the structure as drawn. The source made the active and inactive calls. The rule behind the calls is not given here.

Columns and labels:
Type in all cases: functional
[1] = system: Bacillus spizizenii; assay: Antibacterial activity against Bacillus subtilis ATCC 6633 after 18 to 24 hrs
[2] = system: Staphylococcus aureus; assay: Antibacterial activity against Staphylococcus aureus ATCC 25923 after 18 to 24 hrs
[3] = system: Pseudomonas aeruginosa; assay: Antibacterial activity against Pseudomonas aeruginosa ATCC 9027 after 18 to 24 hrs
[4] = system: Staphylococcus aureus; assay: Antibacterial activity against methicillin-resistant Staphylococcus aureus N315 after 18 to 24 hrs
[5] = system: Escherichia coli; assay: Antibacterial activity against Escherichia coli ATCC 25922 after 18 to 24 hrs
[6] = (§1) Antibacterial activity against Eberthella typhosa ATCC 14028 after 18 to 24 hrs
[7] = system: Micrococcus luteus; assay: Antibacterial activity against Micrococcus luteus ATCC 4698 after 18 to 24 hrs; settings: NCTC 2665
[8] = system: Bacillus; assay: Antibacterial activity against Bacillus proteus ATCC 13315 after 18 to 24 hrs
[9] = system: Eberthella typhosa; assay: Potency index, ratio of norfloxacin MIC to compound MIC for Eberthella typhosa ATCC 14028
[10] = system: Bacillus; assay: Potency index, ratio of norfloxacin MIC to compound MIC for Bacillus proteus ATCC 13315
[11] = system: Eberthella typhosa; assay: as §1

Compound	MIC [1]	MIC [2]	MIC [3]	MIC [4]	MIC [5]	MIC [6]	MIC [7]	MIC [8]	Ratio [9]	Ratio [10]	MIC [11]
CCn1cc(-c2csc(N)n2)c(=O)c2cc(F)c(N3CCOCC3)cc21	18.7 µg/mL (≈ 49.9 µM)	0.8 µg/mL (≈ 2.14 µM)	10.7 µg/mL (≈ 28.6 µM)	32 µg/mL (≈ 85.5 µM)	6 µg/mL (≈ 16 µM)	14.7 µg/mL (≈ 39.3 µM)	13.3 µg/mL (≈ 35.5 µM)	1.7 µg/mL (≈ 4.54 µM)	–	–	–
CCn1cc(-c2csc(N)n2)c(=O)c2cc(F)c(F)cc21	26.7 µg/mL (≈ 86.9 µM)	0.8 µg/mL (≈ 2.6 µM)	78.6 µg/mL (≈ 256 µM)	213 µg/mL (≈ 694 µM)	256 µg/mL (≈ 833 µM)	1.2 µg/mL (≈ 3.9 µM)	5.3 µg/mL (≈ 17.2 µM)	0.6 µg/mL (≈ 1.95 µM)	4	22	–
CCn1cc(-c2csc(N)n2)c(=O)c2cc(F)cc(F)c21	inactive	inactive	inactive	inactive	64 µg/mL (≈ 208 µM)	–	256 µg/mL (≈ 833 µM)	inactive	–	–	inactive
CCn1cc(-c2csc(N)n2)c(=O)c2ccc(C(F)(F)F)cc21	63.9 µg/mL (≈ 188 µM)	128 µg/mL (≈ 377 µM)	13.3 µg/mL (≈ 39.2 µM)	53.2 µg/mL (≈ 157 µM)	5.3 µg/mL (≈ 15.6 µM)	1.7 µg/mL (≈ 5.01 µM)	inactive	13.3 µg/mL (≈ 39.2 µM)	–	–	–
CCn1cc(C(C)=O)c(=O)c2cc(N3CCCCC3)c(Cl)cc21	35.4 µg/mL (≈ 106 µM)	37.3 µg/mL (≈ 112 µM)	42.7 µg/mL (≈ 128 µM)	128 µg/mL (≈ 385 µM)	13.3 µg/mL (≈ 40 µM)	–	37.3 µg/mL (≈ 112 µM)	171 µg/mL (≈ 513 µM)	–	–	inactive
O=C(N[C@H](CO)[C@H](O)c1ccc([N+](=O)[O-])cc1)C(Cl)Cl [CHLORAMPHENICOL]	26.6 µg/mL (≈ 82.3 µM)	16 µg/mL (≈ 49.5 µM)	32 µg/mL (≈ 99 µM)	21.3 µg/mL (≈ 65.9 µM)	13.8 µg/mL (≈ 42.7 µM)	26.6 µg/mL (≈ 82.3 µM)	13.3 µg/mL (≈ 41.2 µM)	32 µg/mL (≈ 99 µM)	–	–	–
CCn1cc(-c2csc(N)n2)c(=O)c2cc(F)c(N3CCN(C(=O)OC(C)(C)C)CC3)cc21	42.7 µg/mL (≈ 90.2 µM)	64 µg/mL (≈ 135 µM)	8 µg/mL (≈ 16.9 µM)	10.7 µg/mL (≈ 22.6 µM)	10.7 µg/mL (≈ 22.6 µM)	5.3 µg/mL (≈ 11.2 µM)	32 µg/mL (≈ 67.6 µM)	2.6 µg/mL (≈ 5.49 µM)	–	–	–
